Source: US8815565B2, “Method for culturing mycoplasma contamination-free cells and method for removing mycoplasma contamination of cells” (Cellsafe Co., Ltd., priority 2010, dated 2014)
Values after ≈ are worked out from the molar mass of the structure shown.

Columns and labels:
[1] = system: Mycoplasma hyorhinis (ATCC17981s); assay: Inhibition of Mycoplasma hyorhinis cultured in PPLO medium, INT colour change; type: cell-based; conditions: Mycoplasma, read-out: concentration showing excellent inhibitory activity against mycoplasma
Procedure: In order to evaluate the effects of the extract and amphidinol derivatives prepared in Example 1 on mycoplasma, Mycoplasma hyorhinis (ATCC17981s) was cultured in a PPLO medium (pleuropneumonia-like organism basal medium, Difco Laboratories, Detroit, USA) supplemented with a fetal calf serum and a yeast extract, according to the method disclosed by Hayflick (Hayflick, 1965, Tex. Rep. Bio. Med. 23, 285-303). That is, 100 μl of the medium was placed on each well of a 96-well plate, and a sample (that is, the extract and amphidinol derivatives prepared in Example 1) was added to each well, such that each sample was diluted from 2 times (i.e., 2× diluted) to 12 times (i.e., 12× diluted), the starting concentration being 1 mg/ml. Mycoplasma was cultured in a PPLO medium (pleuropneumonia-like organism basal medium, Difco Laboratories, Detroit, USA) supplemented with a fetal calf serum and a yeast extract, at a temperature of 37° C. for 48 hours. The resulting culture medium was diluted with the PPLO medium at a ratio of 1:10. 100 μl of the diluted culture medium was added to each well of the 96-well plate, so that the total amount of each well was 200 μl. After culturing at a temperature of 37° C. for 24 hours, 40 μl of 0.2 mg/ml INT (p-iodonitrotetrazolium) was added thereto and culturing was further performed for 4 hours. If the medium turns pink following the culturing, the color change means that metabolism of mycoplasma actively occurs. Also, if mycoplasma is suppressed by the sample, the medium turned pink less.

[2] = system: cell lines NIH3T3, HepG2, and Raw 264.7 contaminated with mycoplasma; assay: Removing mycoplasma from contaminated cell lines with AM3, PCR with mycoplasma diagnosis kit; type: cell-based; conditions: 20 μg/ml, two 3-day cultures; NIH3T3, HepG2, Raw 264.7
Procedure: Various cell lines constructed in laboratories of colleges located in Seoul were obtained. The obtained cell lines were cultured in a DMEM (GIBCO BRL, Cat. No. 12800-058) for 3 days, and then the cells were harvested. PCR was performed thereon with a mycoplasma diagnosis kit (Promokine, Germany; Cellsafe Co., Ltd., Korea) according to the enclosed protocol. The resulting PCR products were electrophoresed on a 1% agarose gel to measure the mycoplasma contamination. As a result, it was confirmed that three cell strains, i.e., NIH3T3, HepG2, Raw 264.7 cell lines, were infected with mycoplasma (see FIG. 1).
(§1) The cell lines NIH3T3, HepG2, and Raw 264.7, which were confirmed to be contaminated with mycoplasma, were each inoculated at a concentration of 1×10^6 cells on a T-75 culture flask (NUNC, Cat. No. 156367). DMEM (GIBCO BRL, Cat. No. 12800-058) containing 10% or less of serum (GIBCO BRL, Cat. No. 10082-147) was added thereto, followed by culturing for 3 days.
as §1, with “thereto and then 20 μg/ml of amphidinol” for “thereto, followed by culturing for”, “(AM3) was added thereto. […]” for “days.”

C=C/C=C/CC/C=C/C=C/C=C/CC/C=C/C(O)C(O)C1OC(C(O)C(O)C(=C)CCC(O)C2CC(O)C(O)C(C(O)C(O)/C=C(\C)CCC(O)CC(O)C(O)C(C)CC(O)C(O)CCCCCC(O)CCCC(O)/C=C/CC(O)/C=C/CC(O)CO)O2)CC(O)C1O (centres unmarked) [AM3, amphidinol 3]
IC50 [1]: ~0.25 µg/mL (≈ 0.188 µM) | mycoplasma contamination [2]: completely removed
